How the values were obtained:
DGK [1] = assay: DGK inhibitor effect on killing activity of human CAR-TIL; type: cell-based; conditions: preliminary observations
Experimental: In addition, experiments were conducted to mimic potential human trials in which mice with established tumors were injected intravenously with 10^7 wild type T cells or the three types of DGK knockout T cells. […] Preliminary relevant observations in human CAR T cells have been recorded using a commercially available DGK inhibitor (R59022). Human mesothelin-CAR T cells mixed with human mesothelin tumor cells (at a 1:1 ratio) were injected into immunodeficient mice. The tumor growth was slowed, but not prevented by the CAR-T cells. After 2-3 weeks, tumors were harvested and the human CAR-T cells were purified. When these T cells (Tumor infiltrating lymphocytes, or TILs) are allowed to react with fresh tumors, they can kill only 5-10% of the tumor cells showing they are hypofunctional compared to freshly made CAR-T cells which kill 70% of tumor cells (FIG. 15).

DGK [2] = conditions: freshly isolated human TIL, renal cell cancers; cited from earlier work
DGK [3] = assay: Lysis of EM-meso-luc cells by antigen-exposed human mesoCAR T cells with or without DGK inhibitors; type: cell-based; conditions: 5 μg/mL inhibitor, 18 hours, after 96 hours exposure to EM-meso
Experimental: Primary human T cells were obtained and mock infected or transduced with lentivirus expressing mesoCAR as previously described (Moon et al., 2011, Clin Cancer Res 17:4719-30). A total of 5×10^6 T cells were subsequently added to 24-well plates that had been seeded with 5×10^5 cells either from the epithelial mesothelioma (EM) human mesothelioma line or a stable derivative cell line, EM-meso, engineered to express high levels of mesothelin, in a 24-well dish. […] Cells were assessed for viability using Trypan blue, and 1×10^5 live T cells were cocultured with 5×10^3 EM-meso-luc cells expressing luciferase in 96-well plates in the presence or absence of the DGK inhibitors DGK1 (R59022) or DGK2 (R59949; Sigma) at 5 μg/mL. After 18 hours, remaining tumor cells were washed and lysed, and luminescence was evaluated. Cell lysate determinations were corroborated with visual estimate of remaining numbers of tumor cells.

Structure (SMILES)	function (killing activity) of human CAR-TIL (DGK [1])	TIL function (DGK [2])	cytotoxicity of mesothelin-exposed mesoCAR T cells (DGK [3])
Cc1nc2sccn2c(=O)c1CCN1CCC(=C(c2ccccc2)c2ccc(F)cc2)CC1 [R59022]	augments function	improve TIL function	reverse the impaired cytotoxicity
O=c1c2ccccc2[nH]c(=S)n1CCN1CCC(=C(c2ccc(F)cc2)c2ccc(F)cc2)CC1 [R59949]	–	–	reverse the impaired cytotoxicity
